We go through one compound from US9700637B2, “Reaction-based fluorescent probes for detecting zinc” (Massachusetts Institute of Technology, priority 2013, dated 2017).

Assay [1] is described as follows: Metal ion selectivity of fluorescence response. Type of assay: physicochemical. The settings on record: 50 mM PIPES pH 7, 100 mM KCl, 25° C. Here is the method:
FIG. 22 depicts metal ion selectivity of DA-ZP1-TPP. Average normalized fluorescence intensities for a 1.1 μM solution of DA-ZP1-TPP in 50 mM PIPES buffer (pH 7) with 100 mM KCl at 25° C., after addition of 50 μM-2 mM concentrations of various metal ions (white bars), followed by addition of 50 μM ZnCl2 (black bars). The grey column represents the average sensor intensity after addition of 100 μM EDTA. Data were normalized to initial measured emission intensity at λex=495 nm.
DA-ZP1-TPP has a zinc-induced fluorescence response and is relatively stable to uncatalyzed hydrolysis and esterase activity. […] Other late 3d-block transition metal ions, such as Co(II) and Cu(II), can coordinate to DA-ZP1-TPP but are generally not available in appreciable chelatable quantities within the cell. In addition to monitoring selectivity in the fluorescence response, we used UV-vis spectroscopy to investigate the rate and zinc-specificity of metal-mediated ester hydrolysis. […] By monitoring the absorbance of the xanthene it system, we could interrogate deacetylation kinetics in a manner that is independent of the fluorescence response. […] To determine whether ester hydrolysis depends on the metal-binding core of DA-ZP1-TPP, we measured the deacetylation kinetics of fluorescein diacetate (DA-FL) under analogous conditions. […]

A further assay relates to RWPE-1 cells. In words: Mitochondrial zinc uptake imaging in prostate cells. Type of assay: cell-based. The settings on record: RWPE-1, 50 μM ZnCl2 KSFM, 24 h. Here is the method: FIG. 25 depicts decreased mitochondrial zinc uptake in cancerous cell lines. RWPE-1, RWPE-2, and PC-3 prostate cell lines were incubated for 24 h in medium supplemented with (+) and without (−) 50 μM ZnCl2. RWPE-1 is the only cell line that has a statistically significant (p<0.001) increase in mitochondrial zinc uptake when incubated in zinc-enriched media.
With a new mitochondrial-targeting sensor in hand, we used DA-ZP1-TPP to investigate the ability of prostate cell lines to accumulate zinc within their mitochondria. RWPE-1 and RWPE-2 are a pair of genetically similar cell lines that retain normal epithelial cell morphology, express cytokeratin markers for prostate epithelial cells, and are hormone sensitive. […] To explore the ability of RWPE-1 and -2 cells to sequester zinc in mitochondria, we measured the fluorescence intensity of DA-ZP1-TPP in both lines after the cells were bathed in normal or zinc-enriched (50 μM ZnCl2) keratinocyte serum-free medium (KSFM) for 24 h prior to imaging. RWPE-1 cells bathed in zinc-enriched medium have a fluorescence signal intensity that is ˜2.3-fold higher than cells bathed in normal medium (FIG. 25). […] Importantly, in both cell lines the observed fluorescence signals from DA-ZP1-TPP are sensitive to ZnPT and TPEN and have good correlation with MitoTracker Red, the Pearson's r values being 0.68±0.09 and 0.59±0.1 for RWPE-1 and -2, respectively. […]

Regarding `CC(=O)Oc1c(Cl)cc2c(c1CN(Cc1ccccn1)Cc1ccccn1)Oc1c(cc(Cl)c(OC(C)=O)c1CN(Cc1ccccn1)Cc1ccccn1)C21OC(=O)c2ccc(C(=O)NCC[P+](c3ccccc3)(c3ccccc3)c3ccccc3)cc21` [DA-ZP1-TPP], the “metal ion selectivity of fluorescence response” value in assay [1] is “responds to Zn(II) over biologically relevant cations such as Ca(II) and Mg(II)”. Further, the “fluorescence signal intensity, zinc-enriched vs normal medium” value in the assay with RWPE-1 cells is given as roughly 2.3 fold.
